# Source: patent US20050215620A1, “Method of treating amyloid beta precursor disorders” (Andrx Labs, LLC, priority 1999, published 2005)
# Key:
# Aβ peptides = experiment: Extracellular and intracellular [35S]-labeled Aβ peptides in APP-expressing H4, MDCK and CHO cells (pulse-chase, immunoprecipitation, autoradiography); type: cell-based, human; canine; Chinese hamster (cells expressing human APP)
# Description: (§1) The three cell lines utilized were: Chinese Hamster Ovary (CHO) cells expressing the 751 amino acid form of APP; Mabin-Darby Canine Kidney (MDCK) cells which overexpress the 695 amino acid form of APP; Human neuroglioma (H4) cells overexpressing the 695 form of human APP. All cells were prepared by the stable introduction of a cDNA coding for human APP. All cell lines were maintained in DMEM containing 10% FBS and antibiotics.
# In order to characterize the effects of cholesterol depletion, cell cultures of each cell line were cultured on six-well plates for 4 days in DMEM containing 10% FCLPDS, which lipid depleted medium reduced the external source of cholesterol, in the presence of lovastatin acid (LA) or absence of LA.
# For measurement of APP processing and Aβ peptide formation, medium was removed and the cells were washed once with PBS and then incubated for 2 hours in DMEM containing 1 mCi/ml [^35S] Methionine. After this “pulse” period, the cells were either (1) lysed to measure the total labeled APPi and APPm at time zero, or (2) the cells were incubated for 2 hours in fresh, unlabeled complete medium (“chase”) and then lysed. Then the cell supernatants and lysates were treated with the appropriate antibody to calculate the amounts of APPi, APPm, APPs, and Aβ peptides.
# To measure Aβ peptides, or to measure APPs, which is the secreted carboxyl-terminal truncated form, cell supernatants were incubated with antibody 6E10, which recognizes the first 15 amino acids of the Aβ peptide that correspond to the COOH-terminal amino acids of APPs . See Buxbaum, J. D., et al. (1994) Proc Natl Acad Sci USA. 91:4489-93, which is incorporated herein by reference.
# The incubations with antibody 6E10 or antibody 369 were performed at 4° C. for 75 minutes followed by a 45 minute incubation at 4° C. with either agarose-linked anti-mouse IgG for antibody 6E10 or protein A sepharose for antibody 369. The beads were then washed three times for 10 minutes and then run on either a 10-20% Tris-Tricine Gel for APPs and Aβ peptides or an 8% polyacrylamide gel for cell-associated APR The gels were dried and exposed to a Phosphor Imager® screen (STORM 860, Molecular Dynamics) and exposed for a minimum of two days. The protein bands were visualized on a STORM 860 Phosphor Imager® (Molecular Dynamics) and quantitated using ImageQuant® (Molecular Dynamics). […]
# To determine whether a decrease in cholesterol is associated with a change in the amount of extracellular Aβ peptides, the H4, MDCK, and CHO cells, expressing human APPm were incubated for 4 days in the presence or absence of 0.5 μM LA. […] Relative levels of extracellular Aβ peptides were determined under each condition by quantitative Phosphorlmager autoradiography. […]
# APP processing [1] = experiment: Extracellular APPs, extracellular Aβ peptides and total APPm in CHO cells; type: cell-based, Chinese hamster (cells expressing human APP)
# Description: The three cell lines utilized were: Chinese Hamster Ovary (CHO) cells expressing the 751 amino acid form of APP; Mabin-Darby Canine Kidney (MDCK) cells which overexpress the 695 amino acid form of APP; Human neuroglioma (H4) cells overexpressing the 695 form of human APP. All cells were prepared by the stable introduction of a cDNA coding for human APP. All cell lines were maintained in DMEM containing 10% FBS and antibiotics. […] After this “pulse” period, the cells were either (1) lysed to measure the total labeled APPi and APPm at time zero, or (2) the cells were incubated for 2 hours in fresh, unlabeled complete medium (“chase”) and then lysed. Then the cell supernatants and lysates were treated with the appropriate antibody to calculate the amounts of […], and Aβ peptides. To measure cell-associated, full-length APPi and APPm, or to measure carboxyl-terminal fragments of APP, cell lysates were incubated with antibody 369 which recognizes the carboxyl-terminus of APP. See Buxbaum, J. D., et al. (1990) Proc Natl Acad Sci USA 87:6003-6, which is incorporated herein by reference. […] See Buxbaum, J. D., et al. (1994) Proc Natl Acad Sci USA. 91:4489-93, which is incorporated herein by reference. The incubations with antibody 6E10 or antibody 369 were performed at 4° C. for 75 minutes followed by a 45 minute incubation at 4° C. with either agarose-linked anti-mouse IgG for antibody 6E10 or protein A sepharose for antibody 369. […] The protein bands were visualized on a STORM 860 Phosphor Imager® (Molecular Dynamics) and quantitated using ImageQuant® (Molecular Dynamics). […] Specifically, it was determined that treatment of CHO cells with 0.5 μM LA reduced the amount of extracellular APPs by about 30% of the amount calculated for the control and reduced the amount of extracellular Aβ peptides by about 70% of the amount calculated for the control when no LA was present. The amount of extracellular Aβ peptides and the amount of extracellular APPs were normalized to the amount of total APP found in the cell at the end of cell labeling as described above. […]
# APP processing [2] = experiment: APP processing (APPs formation, APPm levels) in H4 cells; type: cell-based, human; conditions: 0.5 μM LA
# Description: as §1
# For measurement of APP processing and Aβ peptide formation, medium was removed and the cells were washed once with PBS and then incubated for 2 hours in DMEM containing 1 mCi/ml [^35S] Methionine. […]
# The incubations with antibody 6E10 or antibody 369 were performed at 4° C. for 75 minutes followed by a 45 minute incubation at 4° C. with either agarose-linked anti-mouse IgG for antibody 6E10 or protein A sepharose for antibody 369. […] The protein bands were visualized on a STORM 860 Phosphor Imager® (Molecular Dynamics) and quantitated using ImageQuant® (Molecular Dynamics).
# To determine whether cholesterol depletion affects other aspects of APP processing, H4 cells were incubated for four days in the presence or absence of 0.5 μM LA, and subjected to metabolic labeling. The levels of [^35S]-labeled APPi and APPm were determined by irnmunoprecipitation from cell lysates with an antibody against the COOH-terminal of APP, followed by quantitative autoradiography. […]
# [3] = CHO cells, 0.5 μM LA, normalized to total APP
smiles,measurement,setting,value
"CC[C@H](C)C(=O)O[C@H]1C[C@@H](C)C=C2C=C[C@H](C)[C@H](CC[C@@H](O)C[C@@H](O)CC(=O)O)[C@H]21 [LA, lovastatin acid]",decrease in amounts of extracellular Aβ peptides as compared to the untreated cells,"Aβ peptides; 0.5 μM LA, 4 days, lipid depleted medium, H4, MDCK and CHO cells",40-60%
same,LA concentration sufficient to significantly (p<0.001) decrease the amount of extracellular Aβ peptides,"Aβ peptides; each cell type, various concentrations of LA",≥ 0.05 µM
same,levels of intracellular Aβ peptides in cell lysates,Aβ peptides; presence of 0.5 μM LA,No detectable levels
same,reduction of extracellular Aβ peptide levels (weaker effect),Aβ peptides; printed as 0.5 μM LA,< 20%
same,level of total APPm,APP processing [1]; CHO cells treated with 0.5 μM LA (control 3.2×10^6),3.4×10^6 arbitrary units
same,reduction of the amount of extracellular APPs relative to control,APP processing [1]; [3],about 30%
same,reduction of the amount of extracellular Aβ peptides relative to control,APP processing [1]; [3],about 70%
same,"effects on maturation, levels of [35S]-labeled APPm (FIG. 6)",APP processing [2],not sufficient to account for the decrease in Aβ peptide levels
same,[35S]-labeled APPs formation as compared to control cells (FIG. 5),"APP processing [2]; H4 cells, four days",modest decrease
